Like-named read-outs stand apart in the source and are kept apart here. Where a SMILES comes first, the peptide text is derived from it. Where no end group is shown, it is not given here. [ ]: non-standard residue; d: D form. Aib = CC(C)(N)C(=O)O
Legend:
[1] = test system: Mouse monocyte/macrophage cell line, RAW 264.7; assay: Cholesterol efflux assay (3H-cholesterol, macrophage cell line); type: cell-based; conditions: RAW 264.7, 4 hrs incubation, 0.1% human serum albumin; for 4 h Cholesterol Efflux Emax: ABCA1-mediated efflux
[2] = Pharmacokinetics in mini-pigs after i.v. administration; conditions: female, Göttingen, minipig, iv, 5 nmol/kg
From the text: The aim of the study is to assess the pharmacokinetic properties of the compounds of the invention, in mini-pigs.
Göttingen mini-pigs female, 15-20 kg, purchased from Ellegaard Mini-pigs, Denmark, were housed in the Animal Unit, Novo Nordisk A/S and were kept and handled according to normal procedure in the Animal Unit. After minimum 2 weeks of acclimatization two permanent central venous catheters were implemented in vena cava caudalis in each animal. After surgery the animals were in their normal individual pens during the pharmacokinetic experiments.
Intravenous injections were given through the central short catheter, which was flushed with min 10 ml of sterile saline post administration. The test substance was dosed at 5 nmol/kg, N=3, in a volume of 0.05 ml/kg.
On day 1 the catheters are coupled to extension tubes, which will be removed at the end of day 1.
Samples were kept on wet ice until centrifugation (10 min, 4° C., 1942 g). Afterwards, plasma (min. 100 μl) was transferred immediately to Micronic tubes and kept at −20° C. until analysis. The plasma samples were analysed by an immunoaasay described below.
The plasma concentrations of the peptides with intact N-terminus were determined using a Luminescence Oxygen Chanelling Immuno-assay (LOCI). The donor beads were coated with streptavidin, while acceptor beads were conjugated with a monoclonal antibody recognizing a mid-/C-terminal epitope of the peptide. The other monoclonal antibody, specific for the N-terminus, was biotinylated. The three reactants were combined with the analyte and formed a two-sited immuno-complex. Illumination of the complex released singlet oxygen atoms from the donor beads, which were channeled into the acceptor beads and triggered chemi-luminescence which was measured in an Envision plate reader. The amount of light was proportional to the concentration of the compound.
Plasma concentration-time profiles was analysed by a non-compartmental pharmacokinetics analysis using Phoenix (Pharsight Inc., Mountain View, Calif., USA). Calculations were performed using individual concentration-time values from each animal.

[3] = molecular target: human GLP-1 receptor (Homo sapiens, UniProt P43220); assay: Functional GLP-1 receptor assay, in vitro potency (CRE luciferase; whole cells); type: cell-based; conditions: BHK cells expressing human GLP-1 receptor
human GLP-1 receptor, sequence (P43220 24-463): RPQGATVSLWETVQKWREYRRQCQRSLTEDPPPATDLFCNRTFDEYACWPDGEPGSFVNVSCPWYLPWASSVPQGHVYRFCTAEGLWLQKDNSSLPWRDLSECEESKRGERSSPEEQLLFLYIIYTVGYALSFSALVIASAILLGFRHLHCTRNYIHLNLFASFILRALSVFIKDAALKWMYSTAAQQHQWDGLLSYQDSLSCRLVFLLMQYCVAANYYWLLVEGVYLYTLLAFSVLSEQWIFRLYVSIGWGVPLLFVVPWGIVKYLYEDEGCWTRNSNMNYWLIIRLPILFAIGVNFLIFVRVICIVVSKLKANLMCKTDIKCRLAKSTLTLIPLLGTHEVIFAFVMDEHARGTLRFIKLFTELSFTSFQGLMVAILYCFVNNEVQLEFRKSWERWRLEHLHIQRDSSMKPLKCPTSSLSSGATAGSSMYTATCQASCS

[4] = plasma, T1/2 Mean Value, Göttingen mini-pigs, N=3

| Molecule | C0 ([2]; plasma) | Vd ([2]; plasma) | clearance ([2]; plasma) | half-life ([2]; plasma, T1/2, mini-pigs) | half-life [2, 4] | C0 ([2]; in vivo) | Vd ([2]; in vivo) | clearance ([2]; in vivo) | half-life ([2]; in vivo) | EC50 ([3]; 0% HSA, read-out: GLP1R CRE luc 0% HSA EC50 Mean Value) | EC50 ([3]; GLP1R CRE luc 1% HSA EC50 Mean Value, 1% HSA) | half-life ([2]; in vivo, T1/2 Mean Value) | 4 h Cholesterol Efflux Emax [1] | EC50 ([1]; read-out: 4 h Cholesterol Efflux EC50, ABCA1-mediated efflux (CPT-cAMP induced minus non-induced)) |
| --- | --- | --- | --- | --- | --- | --- | --- | --- | --- | --- | --- | --- | --- | --- |
| CC[C@H](C)[C@H](NC(=O)[C@H](Cc1ccccc1)NC(=O)[C@H](CCC(=O)O)NC(=O)[C@H](CCCCN)NC(=O)[C@@H](NC(=O)[C@H](C)NC(=O)[C@H](CCC(=O)O)NC(=O)CNC(=O)[C@H](CCC(=O)O)NC(=O)[C@H](CC(C)C)NC(=O)[C@H](Cc1ccc(O)cc1)NC(=O)[C@H](CO)NC(=O)[C@H](CO)NC(=O)[C@@H](NC(=O)[C@H](CC(=O)O)NC(=O)[C@H](CO)NC(=O)[C@@H](NC(=O)[C@H](Cc1ccccc1)NC(=O)[C@@H](NC(=O)CNC(=O)[C@H](CCC(=O)O)NC(=O)C(C)(C)NC(=O)[C@@H](N)Cc1c[nH]cn1)[C@@H](C)O)[C@@H](C)O)C(C)C)C(C)C)C(=O)N[C@@H](C)C(=O)N[C@@H](Cc1c[nH]c2ccccc12)C(=O)N[C@@H](CC(C)C)C(=O)N[C@H](C(=O)N[C@@H](CCC(=O)O)C(=O)N[C@@H](CCCCN)C(=O)NC(C)(C)C(=O)N[C@@H](CCCCN)C(=O)N[C@@H](CCC(=O)O)C(=O)N[C@@H](Cc1c[nH]cn1)C(=O)N[C@@H](CC(C)C)C(N)=O)C(C)C [Compound 4, [Aib8,Glu23,Val25,Glu34,Lys35,Aib36,Lys37]-GLP-1-(7-37)-peptidyl-Glu-His-Leu amide] (H-H[Aib]EGTFTSDVSSYLEGEAVKEFIAWLVEK[Aib]KEHL-NH2) | 72.1 nM | 0.1 L/kg | 3.31 mL/h/kg | 20.6 h | 20.6 h |  |  |  |  |  |  |  | 100% |  |
| CC[C@H](C)[C@H](NC(=O)[C@H](Cc1ccccc1)NC(=O)[C@H](CCC(=O)O)NC(=O)[C@H](CCCCN)NC(=O)[C@@H](NC(=O)[C@H](C)NC(=O)[C@H](CCC(=O)O)NC(=O)CNC(=O)[C@H](CCC(=O)O)NC(=O)[C@H](CC(C)C)NC(=O)[C@H](Cc1ccc(O)cc1)NC(=O)[C@H](CO)NC(=O)[C@H](CO)NC(=O)[C@@H](NC(=O)[C@H](CC(=O)O)NC(=O)[C@H](CO)NC(=O)[C@@H](NC(=O)[C@H](Cc1ccccc1)NC(=O)[C@@H](NC(=O)CNC(=O)[C@H](CCC(=O)O)NC(=O)C(C)(C)NC(=O)[C@@H](N)Cc1c[nH]cn1)[C@@H](C)O)[C@@H](C)O)C(C)C)C(C)C)C(=O)N[C@@H](C)C(=O)N[C@@H](Cc1c[nH]c2ccccc12)C(=O)N[C@@H](CC(C)C)C(=O)N[C@H](C(=O)N[C@@H](CCC(=O)O)C(=O)N[C@@H](CCCCN)C(=O)N[C@H](C(=O)N[C@@H](CCCCN)C(=O)N[C@@H](CCC(=O)O)C(=O)N[C@@H](Cc1ccccc1)C(=O)N[C@@H](CC(C)C)C(N)=O)C(C)C)C(C)C [Compound 6, [Aib8,Glu23,Val25,Glu34,Lys35,Val36,Lys37]-GLP-1-(7-37)-peptidyl-Glu-Phe-Leu amide] (H-H[Aib]EGTFTSDVSSYLEGEAVKEFIAWLVEKVKEFL-NH2) | 89.5 nM | 0.0904 L/kg | 1.64 mL/h/kg | 38.7 h | 38.7 h |  |  |  |  |  |  |  | 92% |  |
| CC[C@H](C)[C@H](NC(=O)[C@H](Cc1ccccc1)NC(=O)[C@H](CCC(=O)O)NC(=O)[C@H](CCCCN)NC(=O)[C@@H](NC(=O)[C@H](C)NC(=O)[C@H](CCC(N)=O)NC(=O)CNC(=O)[C@H](CCC(=O)O)NC(=O)[C@H](CC(C)C)NC(=O)[C@H](Cc1ccc(O)cc1)NC(=O)[C@H](CO)NC(=O)[C@H](CO)NC(=O)[C@@H](NC(=O)[C@H](CC(=O)O)NC(=O)[C@H](CO)NC(=O)[C@@H](NC(=O)[C@H](Cc1ccccc1)NC(=O)[C@@H](NC(=O)CNC(=O)[C@H](CCC(=O)O)NC(=O)C(C)(C)NC(=O)[C@@H](N)Cc1c[nH]cn1)[C@@H](C)O)[C@@H](C)O)C(C)C)C(C)C)C(=O)N[C@@H](C)C(=O)N[C@@H](Cc1c[nH]c2ccccc12)C(=O)N[C@@H](CC(C)C)C(=O)N[C@H](C(=O)N[C@@H](CCC(=O)O)C(=O)N[C@@H](CCCCN)C(=O)NC(C)(C)C(=O)N[C@@H](CCCCN)C(=O)N[C@@H](CCC(=O)O)C(=O)N[C@@H](Cc1ccccc1)C(=O)N[C@@H](CC(C)C)C(N)=O)C(C)C [Compound 7] (H-H[Aib]EGTFTSDVSSYLEGQAVKEFIAWLVEK[Aib]KEFL-NH2) | 51.2 nM | 0.146 L/kg | 3.71 mL/h/kg | 27.3 h | 27.3 h |  |  |  |  |  |  |  | 90% |  |
| CC[C@H](C)[C@H](NC(=O)[C@H](Cc1ccccc1)NC(=O)[C@H](CCC(=O)O)NC(=O)[C@H](CCCCN)NC(=O)[C@@H](NC(=O)[C@H](C)NC(=O)[C@H](CCC(=O)O)NC(=O)CNC(=O)[C@H](CCC(=O)O)NC(=O)[C@H](CC(C)C)NC(=O)[C@H](Cc1ccc(O)cc1)NC(=O)[C@H](CO)NC(=O)[C@H](CO)NC(=O)[C@@H](NC(=O)[C@H](CC(=O)O)NC(=O)[C@H](CO)NC(=O)[C@@H](NC(=O)[C@H](Cc1ccccc1)NC(=O)[C@@H](NC(=O)CNC(=O)[C@H](CCC(=O)O)NC(=O)C(C)(C)NC(=O)[C@@H](N)Cc1c[nH]cn1)[C@@H](C)O)[C@@H](C)O)C(C)C)C(C)C)C(=O)N[C@@H](C)C(=O)N[C@@H](Cc1c[nH]c2ccccc12)C(=O)N[C@@H](CC(C)C)C(=O)N[C@H](C(=O)N[C@@H](CCC(=O)O)C(=O)N[C@@H](CCCCN)C(=O)NC(C)(C)C(=O)N[C@@H](CCCCN)C(=O)N[C@@H](CCC(=O)O)C(=O)N[C@@H](Cc1ccccc1)C(=O)N[C@@H](CC(C)C)C(=O)O)C(C)C [Compound 16, [Aib8,Glu23,Val25,Glu34,Lys35,Aib36,Lys37]-GLP-1-(7-37)-peptidyl-Glu-Phe-Leu] |  |  |  |  |  | 123 nM | 0.0889 L/kg | 1.44 mL/h/kg | 42.8 h |  |  |  | 105% | 680 nM |

More lines, main results first:

| C0 ([2]; plasma) | Vd ([2]; plasma) | clearance ([2]; plasma) | half-life ([2]; plasma, T1/2, mini-pigs) | half-life [2, 4] | C0 ([2]; in vivo) | Vd ([2]; in vivo) | clearance ([2]; in vivo) | half-life ([2]; in vivo) | EC50 ([3]; 0% HSA, read-out: GLP1R CRE luc 0% HSA EC50 Mean Value) | EC50 ([3]; GLP1R CRE luc 1% HSA EC50 Mean Value, 1% HSA) | half-life ([2]; in vivo, T1/2 Mean Value) | Molecule | 4 h Cholesterol Efflux Emax [1] | EC50 ([1]; read-out: 4 h Cholesterol Efflux EC50, ABCA1-mediated efflux (CPT-cAMP induced minus non-induced)) |
| --- | --- | --- | --- | --- | --- | --- | --- | --- | --- | --- | --- | --- | --- | --- |
| 163 nM | 0.056 L/kg | 1.17 mL/h/kg |  | 33 h |  |  |  |  |  |  |  | HAEGTFTSDVSSYLEGEAVKEFIAWLVEKVKEFL-NH2 [Compound 67, [Glu23,Val25,Glu34,Lys35,Val36,Lys37]-GLP-1-(7-37)-peptidyl-Glu-Phe-Leu amide] |  |  |
| 59.2 nM | 0.0615 L/kg | 8.04 mL/h/kg |  | 5.4 h |  |  |  |  | 0.04 nM | 0.01 nM |  | HAEGTFTSDVSSYLEGQAAKEFIAWLVEKVKEHL-NH2 [Compound 107, [Glu34,Lys35,Val36,Lys37]-GLP-1-(7-37)-peptidyl-Glu-His-Leu amide] |  |  |
|  |  |  |  |  | 136 nM | 0.0636 L/kg | 1.06 mL/h/kg |  |  |  | 41.7 h | HGEGTFTSDVSSYLEGEAVKEFIAWLVEKVKEFL-NH2 [Compound 76, [Gly8,Glu23,Val25,Glu34,Lys35,Val36,Lys37]-GLP-1-(7-37)-peptidyl-Glu-Phe-Leu amide] |  |  |
|  |  |  |  |  | 58.4 nM | 0.134 L/kg | 4.45 mL/h/kg |  |  |  | 20.6 h | HGEGTFTSDVSSYLEGEAVKEFIAWLVEKVKEHL-NH2 [Compound 78, [Gly8,Glu23,Val25,Glu34,Lys35,Val36,Lys37]-GLP-1-(7-37)-peptidyl-Glu-His-Leu amide] |  |  |
